Measurements as given in the supplement of paper PMC10307832.

Tests used:
Assay in all cases: relative viability (nuclei count vs DMSO), 5 days (fraction); higher = more cells survive
[1] = compound: NC(=O)[C@@H](CCC(F)(F)F)N(Cc1ccc(-c2ncon2)cc1F)S(=O)(=O)c1ccc(Cl)cc1 [Avagacestat] + CC(C)C[C@H](NC(=O)[C@H](Cc1ccccc1)NC(=O)c1cnccn1)B(O)O [Bortezomib] (partner 0.002 µM)
Method in brief: (§1)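 Each reported value is a median over duplicate plates. It expresses relative viability: treated-well nuclei count divided by vehicle-well nuclei count. Lung cancer cell lines in 1536-well plates were dosed by pin tool a day after seeding, alone with one drug or with a fixed anchor-drug dose plus five library-drug doses (not always all listed) in √10 steps, and nuclei were counted after 5 days.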

[2] = compound: NC(=O)[C@@H](CCC(F)(F)F)N(Cc1ccc(-c2ncon2)cc1F)S(=O)(=O)c1ccc(Cl)cc1 [Avagacestat] + CC1(C)CCC(c2ccc(Cl)cc2)=C(CN2CCN(c3ccc(C(=O)NS(=O)(=O)c4ccc(N[C@H](CCN5CCOCC5)CSc5ccccc5)c(S(=O)(=O)C(F)(F)F)c4)cc3)CC2)C1 [Navitoclax] (partner 0.5 µM)
Method in brief: as §1

[3] = compound: NC(=O)[C@@H](CCC(F)(F)F)N(Cc1ccc(-c2ncon2)cc1F)S(=O)(=O)c1ccc(Cl)cc1 [Avagacestat] + Cc1nc(Nc2ncc(C(=O)Nc3c(C)cccc3Cl)s2)cc(N2CCN(CCO)CC2)n1 [Dasatinib] (partner 0.075 µM)
Method in brief: as §1

[4] = compound: NC(=O)[C@@H](CCC(F)(F)F)N(Cc1ccc(-c2ncon2)cc1F)S(=O)(=O)c1ccc(Cl)cc1 [Avagacestat] + CCNC(=O)c1noc(-c2cc(C(C)C)c(O)cc2O)c1-c1ccc(CN2CCOCC2)cc1 [Luminespib] (partner 0.01 µM)
Method in brief: as §1

Cell Line	relative viability ([1]; first compound 0.08 µM)	relative viability ([1]; first compound 0.253 µM)	relative viability ([1]; first compound 0.8 µM)	relative viability ([1]; first compound 2.53 µM)	relative viability ([1]; first compound 8 µM)	relative viability ([2]; first compound 0.08 µM)	relative viability ([2]; first compound 0.253 µM)	relative viability ([2]; first compound 0.8 µM)	relative viability ([2]; first compound 2.53 µM)	relative viability ([2]; first compound 8 µM)	relative viability ([3]; first compound 0.08 µM)	relative viability ([3]; first compound 0.253 µM)	relative viability ([3]; first compound 0.8 µM)	relative viability ([3]; first compound 2.53 µM)	relative viability ([3]; first compound 8 µM)	relative viability ([4]; first compound 0.08 µM)	relative viability ([4]; first compound 0.253 µM)	relative viability ([4]; first compound 0.8 µM)	relative viability ([4]; first compound 2.53 µM)	relative viability ([4]; first compound 8 µM)
NCI-H2347	1.1	0.914	0.935	0.862	0.79	0.907	0.866	0.923	0.663	0.797	0.292	0.292	0.369	0.297	0.331	0.633	0.379	0.608	0.512	0.311
NCI-H2405	1.06	1.03	0.999	0.919	0.94	0.864	0.937	0.779	0.638	0.797	0.186	0.204	0.217	0.229	0.226	0.638	0.856	0.58	0.665	0.466
NCI-H3122	1.06	1.03	1.05	1.01	0.969	0.95	1.09	1.08	1.01	1.03	0.944	0.759	0.843	0.815	0.774	0.0934	0.101	0.074	0.0983	0.11
PC-3 [JPC-3]	0.789	1.01	0.924	0.902	0.914	0.908	0.885	0.864	0.821	0.761	1.17	1.14	1.16	0.888	0.843	0.677	0.81	0.785	0.671	0.628
